# From PubChem BioAssay AID1996
# Details: buffer; pH 7.4; 200.0 µM
row,SMILES,solubility kinetic [µg/mL]
1,O=C1C(Cc2cnc[nH]2)NC(=S)N1c1ccccc1 (centres undefined),37.4
2,Clc1cccc(Cl)c1C[n+]1cccc2ccccc21.[Br-],51.6
3,Cc1ccc(NC(=O)C2CCCN2C(=O)c2cccs2)c(C)c1 (centres undefined),24
4,O=C(COc1ccccc1)Nc1ccccc1F,32.7
5,CC(=O)c1ccc(C(=O)NC2CCCN(Cc3ccccc3F)C2)cc1 (centres undefined),> 53.2
6,Nc1nc(NCCN2CCOCC2)nc(NCc2ccccc2)c1[N+](=O)[O-],12
7,COc1ccc(C(=O)Nc2ccc3nc(C)c(C)nc3c2)cc1,5.3
8,CC(NC(=S)NC1CCCCC1)c1ccccc1 (centres undefined),36.1
9,Cc1nc2ccccc2c(N)c1C(=O)/C=C/c1ccccc1,> 43.3
10,CC(OC(=O)[C@@H](NC(=O)c1ccco1)C(C)C)C(=O)Nc1ncc(Cl)cc1Cl (some centres undefined),> 64.2
11,O=c1nc(-c2ccccc2)nc(-c2ccccc2)[nH]1,22.9
12,CCOC(=O)C(=CNc1ccc(OC)cc1[N+](=O)[O-])C(=O)OCC,0.9
13,O=C(NCCc1ccc(Cl)cc1)C1CCN(c2ncccn2)CC1,6.7
14,Cc1ccccc1N1CC(C(=O)N2CC(C)OC(C)C2)CC1=O (centres undefined),47.1
15,COc1ccc(NC2(c3ccccc3)OC(=O)c3ccccc32)cc1 (centres undefined),1.5
16,CCn1c(/N=C/c2ccc(OC)cc2O)nc2ccccc21,15.6
17,O=C(C[n+]1ccc(/C=N/O)cc1)NC(=O)Nc1ccccc1,41.6
18,COc1ccc2c(CC(=O)Nc3ccc(N4CCOCC4)cc3)coc2c1,5.4
19,CCOC(=O)Cc1cnc(NC(=O)CSc2nc(N)cc(=O)[nH]2)s1,12.6
20,Cn1c(=O)n(Cc2ccc(Br)cc2)c2ccccc21,25.7

row,SMILES,solubility kinetic [µg/mL]
1,COc1ccc(OC(=O)/C=C/c2ccc([N+](=O)[O-])cc2)cc1,< 0.6
2,Cc1onc(-c2ccccc2)c1C(=O)N1CCN(c2ccccn2)CC1,> 52.3
3,CCOC(=O)CNc1nc(Cl)nc(N2CCCCC2)n1,12.3
4,CC(C(=O)Nc1ccc(OCc2ccccc2)cc1)N1CCCC1 (centres undefined),> 48.7
5,O=C(CS(=O)(=O)c1ccccc1)NC1CCCCC1,> 42.2
6,Fc1ccc(Oc2nc(-c3ccccn3)nc3ccccc23)cc1,17.3
7,Cl.NC(Cc1nc2ccccc2[nH]1)c1ccc(Cl)cc1 (centres undefined),37.7
8,COC(=O)c1cc(-c2ccc(OC)cc2)on1,9.7
9,Cc1cccc(NC(=O)N2CCCCCC2)c1C,> 37
10,Nc1ccccc1C(=O)NCC1(c2ccccc2)CCCC1,> 44.2
11,CCN(c1ccccc1)S(=O)(=O)c1ccc2c(c1)OCCO2,26.3
12,O=C(Nc1cccc(S(=O)(=O)NCc2ccco2)c1)c1cccc(Cl)c1,2.5
13,CN(CCOc1ccccc1)CC(O)COCc1ccccc1F (centres undefined),46
14,CCN(CC)CCC(O)(c1ccccc1)C1CCCCC1 (centres undefined),24.3
15,Cc1ccc(NC(=O)c2ccco2)nc1,28.9
16,Cc1ccccc1OCC(=O)NC(C)c1ccccc1 (centres undefined),39.8
17,O=C(Nc1ccc(F)cc1)/C(=C1/CCCCCN1)[N+](=O)[O-],> 44
18,COc1ccccc1NS(=O)(=O)c1cccc(C(=O)N2CCCC2)c1,> 54.1
19,CC(=O)N1Cc2[nH]c3ccccc3c2CC1C(=O)O (centres undefined),> 38.7
20,c1cnc2c(c1)ccc1ncccc12,> 27

row,SMILES,solubility kinetic [µg/mL]
1,CCCCC(CC)C1OCC(CN2CCCCC2)O1 (centres undefined),4.3
2,CC(C)c1ccc(NC(=O)CCC(=O)NCc2ccco2)cc1,5.1
3,CCOc1ccc(C(=O)NCC(c2cccs2)N2CCOCC2)cc1 (centres undefined),> 54.1
4,CCCCN(C(=O)Nc1ccccc1)C1CCS(=O)(=O)C1 (centres undefined),> 46.6
5,c1coc(-c2ccnc(-n3cccc3)n2)c1,1.6
6,NC(=O)CC1C(=O)N(c2ccccc2)C(=S)N1NC(=O)c1ccccc1 (centres undefined),> 55.3
7,COC(=O)c1ccc(C(=O)NC2CCSc3ccccc32)cc1 (centres undefined),4
8,CC(Oc1ccccc1F)C(=O)NC1CCS(=O)(=O)C1 (centres undefined),> 45.2
9,Cc1nnc(SCC(=O)NC(=O)NC(C)C)s1,> 41.2
10,C/C(=N/OC(=O)c1ccccc1Br)c1ccc(C)cc1,1.5
11,CCC1CCCCN1Cc1nc(Cc2ccccc2Cl)no1 (centres undefined),16.3
12,O=C(NC1CCCCC1)C(=S)NCc1ccccc1,1.4
13,CC1CCN(C(=O)c2ccccc2NC(=O)c2cccs2)CC1,> 49.3
14,CC(C)(C)c1ccc(Oc2ccc(NC(=O)c3cccs3)cn2)cc1,1.3
15,COC(=O)[C@H](Cc1ccccc1)NC(=O)NCc1ccc(C)cc1,> 49
16,Cc1ccc(-c2noc(CCCC(=O)NCC3CCCO3)n2)cc1 (centres undefined),42.2
17,O=c1nccc(N/N=C/c2cccc(O)c2)[nH]1,> 34.5
18,O=C(Nc1cccc(Cl)c1)OCCOc1ccccc1,< 0.6
19,Cc1ccc(C(=O)NCC(=O)OCC(=O)Nc2cc(S(=O)(=O)N3CCOCC3)ccc2Cl)s1,> 77.4
